The data set can be described thus: gradient 5% acetonitrile 3 min, to 50% in 2 min, to 85% in 15 min, held 3 min, 100 µL/min. The following applies: column: Zorbax Extend-C18 2.1 x 50 mm; eluents: water / acetonitrile, 0.1% formic acid. Put shortly:
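Values are retention times taken from adduct peaks that software picked and an analyst inspected. The pure standards were run as mixtures of ~100 molecules on HPLC linked to a quadrupole time-of-flight mass spectrometer, in positive and negative ionization mode. A Zorbax Extend-C18 column (2.1 × 50 mm, 1.8 μm) was used at 100 μL/min with water and acetonitrile, each including 0.1% formic acid.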
As for `Cn1c(C2CCN(C(=O)Nc3ccc(Cl)cc3F)CC2)cc(=O)n2nccc12`, the RP-LC retention time was 670 s.

Turning to `CCN1CCN(c2ccc(NC(=O)c3cc(Cl)ccc3F)cn2)C1=O`, the RP-LC retention time came to 747 s.

The compound `O=C(NC(=O)N1CCN(Cc2ccccc2)CC1)c1ccccc1` had an RP-LC retention time of 549 s.

The compound `CCn1c(=O)c(C(=O)NC(C)C)nc2cc(C)c(C)cc21` showed an RP-LC retention time of 803 s.

As for `O=C(NCCN1CCCC1)c1nc2ccccn2c1-c1ccc(F)cc1`, the RP-LC retention time came to 611 s.

`C[C@@H]1O[C@@H](O[C@H]2C[C@@H](O)[C@]3(CO)[C@@H]4C(CC[C@]3(O)C2)[C@@]2(O)CC[C@H](C3COC(=O)C3)[C@@]2(C)C[C@H]4O)[C@H](O)[C@H](O)[C@H]1O` (stereo partly drawn): the RP-LC retention time turned out to be 602 s.

The compound `Cc1ccc(CNC(=O)c2ccc(NC(=O)C3CC3)cc2N2CCOCC2)o1` gave an RP-LC retention time of 768 s.

`Cc1ccc(OCc2nnc(SCC(=O)Nc3nc(-c4ccccc4)c(C)s3)o2)cc1`: the RP-LC retention time was determined as 1090 s.

Compound `COc1nn(C)cc1C(=O)NCC(=O)Nc1cccc2nsnc12` returned an RP-LC retention time of 636 s.

As to `Cc1ccc(CNC(=O)C2(C)Cn3nc(C(=O)NCc4ccccc4)cc3C(=O)N2C)cc1` (stereo not drawn), the RP-LC retention time amounted to 766 s.

Regarding `COc1ccc(C(O)CN2CCN(c3ccc(C)cc3)CC2)cc1OC` (stereo not drawn), the RP-LC retention time was determined as 644 s.

For the compound `COc1ccc(CCNC(=O)C2=C3CCCN3c3ccccc3S2(=O)=O)cc1OC`, the RP-LC retention time turned out to be 765 s.

`O=C(Nc1ccccc1)N1CC(c2nc3ccccc3[nH]2)C1` yielded an RP-LC retention time of 548 s.

With `CCN1c2ccc(C)cc2C(=O)NC12CCN(C(=O)c1ccc(C(F)(F)F)cc1)CC2`, the RP-LC retention time worked out at 788 s.

With `Cn1c(=O)c2cc(C(=O)Nc3ccc(F)cc3Cl)sc2n(C)c1=O`, the RP-LC retention time is 797 s.

Compound `Cc1ccc(-c2nnc(CC(=O)NC3CCCCC3)o2)cc1` registered an RP-LC retention time of 830 s.

On to `COc1ccc(CNC(=O)CN2CCc3[nH]c4c(OC)ccc(Cl)c4c(=O)c3C2)cc1`, for which the RP-LC retention time is 610 s.

`COc1ccc(-c2nnc(COc3ccc(NC(=O)c4cccnc4)cc3)o2)cc1` gave an RP-LC retention time of 711 s.

Regarding `COc1ccc(C2C(C(C)=O)=C(O)C(=O)N2CCCN2CCOCC2)c(OC)c1` (stereo not drawn), the RP-LC retention time came to 554 s.

`Clc1ccccc1-c1csc(Nc2ccccn2)n1` yielded an RP-LC retention time of 960 s.

`Cc1cnn(CC(=O)N2CCC3(CC2)CC(C)(O)CCO3)c1` (stereo not drawn) had an RP-LC retention time of 603 s.

Regarding `Cc1ccc(NC(=O)N2CCCC2c2nc(-c3cccc(Cl)c3)no2)cc1` (stereo not drawn), the RP-LC retention time worked out at 1110 s.

`CC(=O)N1CCC(C(=O)N(C)C2CCc3nn(C)c(=O)n3CC2)CC1` (stereo not drawn) displayed an RP-LC retention time of 569 s.

`COc1ccc(N2CC(NC(=O)c3ccc(S(=O)(=O)N(C)C)cc3)CC2=O)cc1OC` (stereo not drawn) returned an RP-LC retention time of 634 s.

With `COc1ccc(N2CCN(c3nc(C(=O)N4CCN(CC(C)C)CC4)cs3)CC2)cc1`, the RP-LC retention time is 648 s.

As to `COc1cccc(CNC2CCN(c3ccc(C(=O)NC4CC4)cn3)C2)c1OC` (stereo not drawn), the RP-LC retention time stood at 562 s.

Consider `COc1ccc(CSc2nnc3c(S(=O)(=O)N4CCCC4)cccn23)cc1F`, for which the RP-LC retention time amounted to 825 s.

`COc1ccc(-c2nc3cnc(Br)cn3c2Nc2ccc(OC)c(OC)c2)cc1` showed an RP-LC retention time of 852 s.

The compound `COc1ccc(C(=O)N2CCCC2c2nc(-c3ccc(OC)c(OC)c3)no2)cc1OC` (stereo not drawn) registered an RP-LC retention time of 817 s.

On to `Cn1c(N2CCCC(C(=O)NCCCN3CCN(c4ccccc4)CC3)C2)cc(=O)n(C)c1=O` (stereo not drawn), for which the RP-LC retention time is 600 s.

`COCCNC(=O)c1nn(-c2ccc(Cl)cc2)c2c(=O)n(C)cnc12` showed an RP-LC retention time of 709 s.

`CCOC(=O)c1ccc(N2C(=O)[C@@H]3Cc4ccccc4CN3C2=O)cc1` gave an RP-LC retention time of 970 s.

Take `CC1=NS(=O)(=O)N(C)C=C1C(=O)OCc1nc(-c2ccc(Cl)cc2)no1`: the RP-LC retention time was found to be 1010 s.

Regarding `Cc1ccccc1CNC(=O)c1ccc2c(c1)nc1n2CCN(C2CCCCC2)C1=O`, the RP-LC retention time worked out at 836 s.

As to `COc1ccc(-n2nc(N3CCCC(C(=O)NC(C)CCc4ccccc4)C3)ccc2=O)cc1` (stereo not drawn), the RP-LC retention time was determined as 884 s.

`CCCCOP(=O)(OCCCC)C1(C)CC(=O)CC(C)(C)C1` (stereo not drawn): the RP-LC retention time was determined as 1100 s.

Take `Cc1ccccc1NC(=O)Cn1ccc2sccc2c1=O`: the RP-LC retention time is 701 s.

In turn, `CCc1nn(CC(=O)NCCc2c[nH]c3ccccc23)c(=O)c2cc3sccc3n12` displayed an RP-LC retention time of 842 s.

The compound `COCCCNC(=O)c1ccc(-c2cnc(NC3CCCCC3)nc2)cc1` returned an RP-LC retention time of 806 s.

With `Cn1ncc2c(N3CCSCC3)nc(C(=O)NCCc3ccccn3)nc21`, the RP-LC retention time was 572 s.

In turn, `COc1ccc2c(c1[N+](=O)[O-])CC[C@@H]1[C@@H]2CC[C@]2(C)C(=O)CC[C@@H]12` registered an RP-LC retention time of 1050 s.

`Cc1ccc(-n2ccn3c(CCC(=O)NCCc4c[nH]c5ccccc45)nnc3c2=O)cc1C` gave an RP-LC retention time of 757 s.

As for `CCn1c(N2CCC(C(=O)N3CCC(N4CCCCC4)CC3)CC2)cc(=O)n(C)c1=O`, the RP-LC retention time was found to be 600 s.

`CC1CCCC(NC(=O)Cn2nc(Cc3ccncc3)c3ccccc3c2=O)C1C` (stereo not drawn) displayed an RP-LC retention time of 655 s.

Compound `Cn1c(=O)c2cc(C(=O)N3CCN(c4ccccn4)CC3)sc2n(C)c1=O` yielded an RP-LC retention time of 578 s.

As for `CCN1c2ccc(C(=O)Nc3ccc4c(c3)OCCO4)cc2-c2ccccc2S1(=O)=O`, the RP-LC retention time came to 990 s.

`Cc1ccc(F)cc1S(=O)(=O)N1CCC2(C1)C(=O)N(C)c1ccccc12` (stereo not drawn): the RP-LC retention time turned out to be 955 s.

For `CC(C)c1cc(Oc2c(Br)cc(NC(=O)CC(=O)O)cc2Br)ccc1O`, the RP-LC retention time came to 940 s.

As for `Cc1nnc2ccc(S(=O)(=O)N(Cc3ccccc3)c3ccc(F)cc3)cn12`, the RP-LC retention time worked out at 870 s.

As for `COc1cc(NC(=O)c2c(OC)cc(=O)n3c2CCCC3)cc(OC)c1`, the RP-LC retention time was found to be 691 s.

Consider `COCc1cc(=O)n(Cc2ccccc2)c(N2CCCC2)n1`, for which the RP-LC retention time is 777 s.

`Fc1ccccc1-c1nc(-c2ccc3c(c2)ncn3CCN2CCCC2)no1` displayed an RP-LC retention time of 629 s.

`Cn1cnc2c(C(=O)N3CCc4ccccc4C3)nn(-c3ccccc3)c2c1=O` came in with an RP-LC retention time of 831 s.

In turn, `CC(C)(C)c1ccc(-c2nc(C3CC(=O)N(c4ccc(F)c(Cl)c4)C3)no2)cc1` (stereo not drawn) yielded an RP-LC retention time of 1360 s.

The compound `COc1cccc(-c2nc(C3CCN(S(=O)(=O)c4ccc(F)c(C)c4)CC3)no2)c1` came in with an RP-LC retention time of 1150 s.

As for `CCCN(CC1CCOC1)S(=O)(=O)c1ccccc1C` (stereo not drawn), the RP-LC retention time was determined as 904 s.

For the compound `O=C1CCCc2cc(S(=O)(=O)N3CCC(C(=O)NC4CCCCCC4)CC3)ccc2N1`, the RP-LC retention time was found to be 769 s.

Regarding `COc1ccc(N2CCN(C(=O)CN3C(=O)CCc4cc(Br)ccc43)CC2)cc1`, the RP-LC retention time is 829 s.

These data come from the METLIN SMRT retention time set (Domingo-Almenara et al. 2019).
